Measured values: paper PMC4079327 (Journal of Medicinal Chemistry, 2014)

Experiments:
PfDHODH [1] = target: T1, PfDHODH (Plasmodium falciparum, UniProt Q08210, DEL384-413); assay: Isothermal titration calorimetry; type: binding; conditions: ITC, 303 K; for ΔH PfDHODH: 1σ confidence interval in parentheses
T1 sequence (Q08210 with tags, fused parts or gaps DEL384-413): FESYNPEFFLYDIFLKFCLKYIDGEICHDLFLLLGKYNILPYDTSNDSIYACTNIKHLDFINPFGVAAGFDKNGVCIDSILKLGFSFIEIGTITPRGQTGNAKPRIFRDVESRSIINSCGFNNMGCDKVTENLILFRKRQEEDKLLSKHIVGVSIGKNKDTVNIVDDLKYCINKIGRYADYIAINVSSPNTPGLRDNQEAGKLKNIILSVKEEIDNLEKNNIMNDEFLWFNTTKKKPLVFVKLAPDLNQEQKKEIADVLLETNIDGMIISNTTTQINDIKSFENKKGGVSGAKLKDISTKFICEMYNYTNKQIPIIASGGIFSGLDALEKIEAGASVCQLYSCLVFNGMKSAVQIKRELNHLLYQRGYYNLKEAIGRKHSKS

HsDHODH L46A = HsDHODH L46A (Homo sapiens, UniProt Q02127, L45A); assay: biochemical
HsDHODH R136A = HsDHODH R136A (Homo sapiens, UniProt Q02127, R135A); assay: biochemical
HsDHODH L359A = HsDHODH L359A (Homo sapiens, UniProt Q02127, L358A); assay: biochemical
rat DHODH = rat DHODH (Rattus norvegicus, UniProt Q63707); assay: Isothermal titration calorimetry; type: binding; conditions: ITC, 303 K; for ΔH rat DHODH: 1σ confidence interval in parentheses
P. falciparum 3D7 cells = conditions: read-out: IC50 P. falciparum 3D7 cells; cited from earlier work
PfDHODH [2] = target: T2, PfDHODH (Plasmodium falciparum, UniProt Q08210); conditions: read-out: IC50 PfDHODH; cited from earlier work
T2 sequence (Q08210 158-569): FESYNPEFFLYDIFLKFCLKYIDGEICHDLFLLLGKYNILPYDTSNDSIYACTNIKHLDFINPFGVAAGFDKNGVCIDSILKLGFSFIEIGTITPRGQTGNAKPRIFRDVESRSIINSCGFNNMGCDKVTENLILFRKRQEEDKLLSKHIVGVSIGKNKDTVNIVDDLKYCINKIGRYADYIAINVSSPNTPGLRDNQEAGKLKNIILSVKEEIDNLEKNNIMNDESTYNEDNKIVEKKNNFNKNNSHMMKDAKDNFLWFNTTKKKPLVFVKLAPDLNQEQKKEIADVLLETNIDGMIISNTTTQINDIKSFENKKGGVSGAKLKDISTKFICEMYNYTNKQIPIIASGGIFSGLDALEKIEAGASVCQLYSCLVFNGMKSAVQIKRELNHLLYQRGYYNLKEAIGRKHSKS

HsDHODH = HsDHODH (Homo sapiens, UniProt Q02127); assay: DHODH steady-state inhibition, DCIP assay; type: biochemical
rDHODH = rDHODH (Rattus norvegicus, UniProt Q63707); assay: DHODH steady-state inhibition, DCIP assay; type: biochemical
mDHODH = mDHODH (Mus musculus, UniProt O35435); assay: DHODH steady-state inhibition, DCIP assay; type: biochemical
dDHODH = dDHODH (Canis lupus familiaris, UniProt A0A8I3MWX2); assay: DHODH steady-state inhibition, DCIP assay; type: biochemical, dog
Sequence of dDHODH (A0A8I3MWX2 29-395): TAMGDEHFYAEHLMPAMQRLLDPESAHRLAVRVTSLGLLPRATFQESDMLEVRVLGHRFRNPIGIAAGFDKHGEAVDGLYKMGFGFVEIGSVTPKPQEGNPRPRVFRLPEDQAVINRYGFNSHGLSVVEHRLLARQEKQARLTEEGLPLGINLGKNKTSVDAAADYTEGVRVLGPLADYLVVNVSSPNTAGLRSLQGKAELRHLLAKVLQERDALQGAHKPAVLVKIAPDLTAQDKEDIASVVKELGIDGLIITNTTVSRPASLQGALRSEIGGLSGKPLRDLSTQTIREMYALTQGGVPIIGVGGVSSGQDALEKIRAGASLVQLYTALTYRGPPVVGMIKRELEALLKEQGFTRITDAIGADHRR

Sequence of rat DHODH (Q63707 32-395 limits assumed): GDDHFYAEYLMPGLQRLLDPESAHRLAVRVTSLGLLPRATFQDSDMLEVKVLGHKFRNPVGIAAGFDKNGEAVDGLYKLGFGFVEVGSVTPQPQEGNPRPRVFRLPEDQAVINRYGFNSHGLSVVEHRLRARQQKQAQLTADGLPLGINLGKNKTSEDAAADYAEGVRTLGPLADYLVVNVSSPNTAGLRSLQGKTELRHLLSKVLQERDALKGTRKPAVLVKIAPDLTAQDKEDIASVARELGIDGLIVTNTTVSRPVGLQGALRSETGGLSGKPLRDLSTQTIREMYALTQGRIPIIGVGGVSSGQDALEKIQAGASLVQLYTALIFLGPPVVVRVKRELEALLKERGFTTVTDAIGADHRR
Sequence of HsDHODH L46A (Q02127 32-395 L45A): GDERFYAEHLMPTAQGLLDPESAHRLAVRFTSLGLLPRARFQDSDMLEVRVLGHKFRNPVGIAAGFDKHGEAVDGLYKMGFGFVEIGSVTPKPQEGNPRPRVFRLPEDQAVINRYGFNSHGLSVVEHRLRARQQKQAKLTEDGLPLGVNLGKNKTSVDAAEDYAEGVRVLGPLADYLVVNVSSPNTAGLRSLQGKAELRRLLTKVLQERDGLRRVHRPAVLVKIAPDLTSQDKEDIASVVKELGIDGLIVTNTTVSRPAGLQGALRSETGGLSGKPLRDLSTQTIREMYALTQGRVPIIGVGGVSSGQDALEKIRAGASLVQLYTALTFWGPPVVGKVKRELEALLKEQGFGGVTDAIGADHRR
Sequence of HsDHODH R136A (Q02127 32-395 R135A): as the sequence (Q02127 32-395 L45A) above, with A14L, R104A counted along it
Sequence of HsDHODH L359A (Q02127 32-395 L358A): as the sequence (Q02127 32-395 L45A) above, with A14L, L327A counted along it
Sequence of HsDHODH (Q02127 29-395 limits assumed): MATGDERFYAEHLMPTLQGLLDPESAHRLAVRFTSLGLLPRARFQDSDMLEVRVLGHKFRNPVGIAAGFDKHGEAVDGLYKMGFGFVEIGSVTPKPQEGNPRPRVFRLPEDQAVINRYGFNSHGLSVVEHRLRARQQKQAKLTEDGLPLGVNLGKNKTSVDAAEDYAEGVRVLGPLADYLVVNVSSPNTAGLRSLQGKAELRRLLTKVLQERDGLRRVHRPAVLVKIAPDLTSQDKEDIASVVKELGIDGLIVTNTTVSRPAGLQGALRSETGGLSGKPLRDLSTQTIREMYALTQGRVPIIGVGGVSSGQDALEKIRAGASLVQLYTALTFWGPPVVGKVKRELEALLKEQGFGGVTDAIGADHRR
Sequence of mDHODH (O35435 29-395 limits assumed): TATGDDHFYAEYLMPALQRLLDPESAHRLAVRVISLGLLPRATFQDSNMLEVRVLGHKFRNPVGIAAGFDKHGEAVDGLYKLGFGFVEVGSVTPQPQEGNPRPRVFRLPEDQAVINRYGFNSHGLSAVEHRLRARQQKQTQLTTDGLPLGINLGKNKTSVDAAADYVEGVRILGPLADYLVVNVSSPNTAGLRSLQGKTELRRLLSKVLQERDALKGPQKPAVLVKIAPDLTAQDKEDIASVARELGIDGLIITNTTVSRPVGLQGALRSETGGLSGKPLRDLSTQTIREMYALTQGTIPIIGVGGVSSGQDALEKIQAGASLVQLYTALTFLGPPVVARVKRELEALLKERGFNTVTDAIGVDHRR
Sequence of rDHODH (Q63707 29-395 limits assumed): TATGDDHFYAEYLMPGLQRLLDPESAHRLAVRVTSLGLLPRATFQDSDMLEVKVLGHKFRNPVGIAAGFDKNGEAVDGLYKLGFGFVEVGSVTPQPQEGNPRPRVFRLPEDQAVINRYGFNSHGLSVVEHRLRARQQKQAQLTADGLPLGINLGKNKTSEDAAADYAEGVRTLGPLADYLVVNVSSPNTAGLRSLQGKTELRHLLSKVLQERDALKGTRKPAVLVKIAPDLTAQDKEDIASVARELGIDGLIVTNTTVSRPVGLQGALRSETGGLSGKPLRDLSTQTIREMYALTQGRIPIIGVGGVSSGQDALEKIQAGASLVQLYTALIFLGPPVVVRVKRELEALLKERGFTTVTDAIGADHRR

Cc1cc(Nc2ccc(C(F)(F)F)c(F)c2)n2nc(C(C)(F)F)nc2n1 [Compound 10, 2-(1,1-difluoroethyl)-N-[3-fluoro-4-(trifluoromethyl)phenyl]-5-methyl [1,2,4]triazolo[1,5-a]pyrimidin-7-amine]
–TΔS PfDHODH (PfDHODH [1]): –2.1 kcal/mol | ΔH PfDHODH (PfDHODH [1]): –9.0 (−9.3 to −8.7) kcal/mol | IC50 (HsDHODH L46A): > 100 µM | IC50 (HsDHODH R136A): > 100 µM | IC50 (HsDHODH L359A): > 100 µM

Cc1cc(Nc2cc(F)c(C(F)(F)F)c(F)c2)n2nc(C(C)(F)F)nc2n1 [Compound 11, N-(3,5-difluoro-4-(trifluoromethyl)phenyl)-2-(1,1-difluoroethyl)-5-methyl[1,2,4]-triazolo-[1,5-a]pyrimidin-7-amine]
–TΔS PfDHODH (PfDHODH [1]): –3.3 kcal/mol | ΔH PfDHODH (PfDHODH [1]): –8.1 (−8.8 to −7.5) kcal/mol | –TΔS rat DHODH (rat DHODH): –8.0 kcal/mol | ΔH rat DHODH (rat DHODH): –2.1 (−2.5 to −1.9) kcal/mol | IC50 (HsDHODH L46A): > 100 µM | IC50 (HsDHODH R136A): > 100 µM | IC50 (HsDHODH L359A): > 100 µM

Cc1cc(Nc2cc(F)c(C(F)(F)F)c(F)c2)n2ncnc2n1 [Compound 9, N-(3,5-difluoro-4-(trifluoromethyl)phenyl)-5-methyl-[1,2,4]triazolo[1,5-a]pyrimidin-7-amine]
IC50 (P. falciparum 3D7 cells): 0.22 µM | IC50 (PfDHODH [2]): 0.13 µM

Cc1cc(Nc2ccc(C(F)(F)F)cc2)n2ncnc2n1 [Compound 8, (5-methyl[1,2,4]triazolo[1,5-a]pyrimidin-7-yl)(4-trifluoromethylphenyl)amine]
inhibition of the human enzyme (in words) (HsDHODH): did not inhibit | inhibition of rat DHODH (in words) (rDHODH): did not inhibit | inhibition of mouse DHODH (in words) (mDHODH): did not inhibit | inhibition of dog DHODH (in words) (dDHODH): did not inhibit | –TΔS PfDHODH (PfDHODH [1]): 1.5 kcal/mol | ΔH PfDHODH (PfDHODH [1]): –10 (−12 to −9.8) kcal/mol

Cc1cc(Nc2cc(F)c(C(F)(F)F)c(F)c2)n2nc(C(F)(F)F)nc2n1 [Compound 6, N-(3,5-difluoro-4-(trifluoromethyl)phenyl)-2-(trifluoromethyl)-5-methyl-[1,2,4]-triazolo[1,5-a]pyrimidin-7-amine]
–TΔS PfDHODH (PfDHODH [1]): –4.5 kcal/mol | ΔH PfDHODH (PfDHODH [1]): –6.5 (−6.9 to −6.2) kcal/mol | ΔH rat DHODH (rat DHODH): –1.6 (−1.8 to −1.5) kcal/mol | IC50 (HsDHODH L46A): > 100 µM | IC50 (HsDHODH R136A): > 100 µM

Cc1cc(Nc2ccc(C(F)(F)F)cc2)n2nc(C(C)(F)F)nc2n1 [Compound 5, 2-(1,1-difluoroethyl)-5-methyl-N-[4-(trifluoromethyl)phenyl]-[1,2,4]triazolo[1,5-a]pyrimidin-7-amine]
inhibition of the human enzyme (in words) (HsDHODH): did not inhibit | –TΔS PfDHODH (PfDHODH [1]): –2.2 kcal/mol | ΔH PfDHODH (PfDHODH [1]): –8.3 (−9.2 to −7.5) kcal/mol
